In US10806741B2, “Treatments for free-living amoebic infections” (Profounda, Inc., priority 2018, dated 2020):

Columns and labels:
Naegleria fowleri [1] = settings: Naegleria fowleri in the laboratory; cited from earlier work
[2] = solubility of miltefosine; type: physicochemical
From the text: The chemical name of miltefosine is 2-[[(hexadecyloxy)hydroxyphosphenyl]oxy]-N,N,N-trimethylethylammonium inner salt, also known as hexadecylphosphocholine, represented by the formula (I). The empirical formula is C21H46NO4P, yielding a molecular weight of 407.57 g/mol.
Thus, according to certain aspects of the presently disclosed invention, the miltefosine may be administered as an oral formulation that is a liquid, such as included in a liquid capsule that may be swallowed, or as a formulation that a patient may drink. The miltefosine may be applied directly to body tissues such as skin or cornea. Alternatively, the miltefosine may be formulated as a solution that may be administered intravenously, such as formulated in a sterile saline solution.

Acanthamoeba [3] = assay: patients with Acanthamoeba keratitis treated with systemically administered (oral) miltefosine; type: in vivo, human
From the text: Such infections have typically been hard to treat as the standard topical treatments generally don't permeate through the various tissue layers to the cysts of the amoeba. […] Previous treatment protocols for Acanthamoeba keratitis have only included topically applied agents such as biocides, and it is not clear from reported results whether cyst reduction was present at the end of these treatment protocols. Moreover, prior to 1996, every patient diagnosed with Acanthamoeba keratitis eventually lost the infected eye.
Since AK is commonly misdiagnosed, the stage of the disease when it is successfully identified varies greatly. […] A major advantage of the presently disclosed methods is that such patients could receive steroids after surgery while also receiving either or both of the systemic and topical formulations of miltefosine, and optional additional second agents.
Medication was discontinued for one week, during which time the patient experienced renewed symptoms.

Naegleria fowleri [4] = settings: Mexico, Arkansas, and Florida patients; cited from earlier work
[5] = in vivo; cited from earlier work
Acanthamoeba [6] = settings: topical administration, 160 μM, 28 days treatment; hamsters exposed to Acanthamoeba for 5 days; cited from earlier work

2-[[(hexadecyloxy)hydroxyphosphenyl]oxy]-N,N,N-trimethylethylammonium inner salt [miltefosine]
amoeba-killing activity (Naegleria fowleri [1]): amoeba-killing activity | solubility ([2]; aqueous solutions): freely soluble | solubility ([2]; water, 0.1 N HCl or NaOH, methanol, and ethanol): freely soluble | efficacy against Acanthamoeba keratitis, active feeding amoeba and cysts in the eyes (Acanthamoeba [3]; oral formulation, over eighty patients, more than a third treated for at least two months): effective to treat Acanthamoeba keratitis and was able to kill both active feeding amoeba and cysts in the eyes | outcome of case study (AK infection) (Acanthamoeba [3]; patient, oral 50 mg TID just over a month, then 50 mg BID for an additional two months, with short course of oral steroids): clear the AK infection | survival of PAM patients (Naegleria fowleri [4]): survived | half-life [5]: long half-life | complete cure of hamsters (Acanthamoeba [6]): 85%
